Target: MAGL (Homo sapiens (Human), UniProt Q99685)
Test: In vitro competitive activity-based protein profiling (human prefrontal cortex membrane fractions, FP-Rh probe), MAGL band
Conditions: read-out: MAGL IC50 (μM) (human); human prefrontal cortex membrane fractions

Sequence of MAGL (Q99685 whole entry): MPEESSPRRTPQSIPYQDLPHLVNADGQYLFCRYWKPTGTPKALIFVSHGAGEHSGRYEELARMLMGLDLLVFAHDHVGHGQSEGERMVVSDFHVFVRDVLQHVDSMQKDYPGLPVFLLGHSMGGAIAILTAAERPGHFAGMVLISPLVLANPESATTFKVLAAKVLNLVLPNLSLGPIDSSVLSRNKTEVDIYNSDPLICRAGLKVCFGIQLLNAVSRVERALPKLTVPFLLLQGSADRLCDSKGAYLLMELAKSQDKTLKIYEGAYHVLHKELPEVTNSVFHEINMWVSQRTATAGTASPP

SMILES | IC50
O=C(O)c1ccn(C(=O)N2C[C@H]3C[C@H](Oc4cccc(C(F)(F)F)c4)C[C@H]3C2)n1 [Example 231, 1-(trans-5-(3-(trifluoromethyl)-phenoxy)-octahydrocyclopenta-[c]pyrrole-2-carbonyl)-1H-pyrazole-3-carboxylic acid] | < 0.1 µM
C[C@@H]1CC[C@@H](C)N1c1cc(C(F)(F)F)ccc1CN1CCN(C(=O)n2ccc(C(=O)O)n2)CC1 [Example 359, 1-(4-(2-((2R,5R)-2,5-dimethylpyrrolidin-1-yl)-4-(trifluoromethyl)-benzyl)piperazine-1-carbonyl)-1H-pyrazole-3-carboxylic acid] | < 0.1 µM
O=C(O)c1ccn(C(=O)N2CCN(Cc3cccc(Oc4cc(C(F)(F)F)ccn4)c3)CC2)n1 [Example 57, 1-(4-(3-((4-(trifluoromethyl)-pyridin-2-yl)oxy)benzyl)-piperazine-1-carbonyl)-1H-pyrazole-3-carboxylic acid] | < 0.1 µM
O=C(O)c1ccn(C(=O)N2CCN(Cc3ccc(C(F)(F)F)cc3N3CC[C@H](F)C3)CC2)n1 [Example 92, (S)-1-(4-(2-(3-fluoropyrrolidin-1-yl)-4-(trifluoromethyl)-benzyl)-piperazine-1-carbonyl)-1H-pyrazole-3-carboxylic acid] | < 0.1 µM
Cc1cc(-c2ccccc2)ccc1CN1CCN(C(=O)n2ccc(C(=O)O)n2)[C@H](C)C1 [Example 245, (R)-1-(2-methyl-4-((3-methyl-[1,1′-biphenyl]-4-yl)methyl)-piperazine-1-carbonyl)-1H-pyrazole-3-carboxylic acid] | < 0.1 µM
O=C(O)c1ccn(C(=O)N2CCN(Cc3ccc(N4CCCC4)cc3C(F)(F)F)CC2)n1 [Example 167, 1-(4-(4-(pyrrolidin-1-yl)-2-(trifluoromethyl)-benzyl)piperazine-1-carbonyl)-1H-pyrazole-3-carboxylic acid] | < 0.1 µM
O=C(O)c1ccn(C(=O)N2CCC3(CCN(Cc4cccc(C(F)(F)F)c4Cl)C3)CC2)n1 [Example 339, 1-(2-(2-chloro-3-(trifluoromethyl)-benzyl)-2,8-diazaspiro[4.5]-decane-8-carbonyl)-1H-pyrazole-3-carboxylic acid] | < 0.1 µM
CC(C)(O)CN(Cc1cccc(C(F)(F)F)c1)C1CCN(C(=O)n2ccc(C(N)=O)n2)CC1 [Example 36, 1-(4-((2-Hydroxy-2-methylpropyl)(3-(trifluoromethyl)benzyl)amino)piperidine-1-carbonyl)-1H-pyrazole-3-carboxamide] | < 0.1 µM
O=C(O)c1ccn(C(=O)N2CCC(OCc3ccc(Cl)c(C(F)(F)F)c3)CC2)n1 [Example 276, 1-(4-((4-chloro-3-(trifluoromethyl)-benzyl)oxy)-piperidine-1-carbonyl)-1H-pyrazole-3-carboxylic acid] | < 0.1 µM
O=C(O)c1ccn(C(=O)N2CCN(Cc3cccc(Oc4ccc(Cl)cc4)c3)CC2)n1 [Example 98, 1-(4-(3-(4-chlorophenoxy)-benzyl)-piperazine-1-carbonyl)-1H-pyrazole-3-carboxylic acid] | < 0.1 µM
Cc1cc(O[C@H]2C[C@@H]3CN(C(=O)n4ccc(C(=O)O)n4)C[C@@H]3C2)ccc1C(F)(F)F [Example 254, 1-(trans-5-(3-methyl-4-(trifluoromethyl)-phenoxy)-octahydrocyclopenta-[c]pyrrole-2-carbonyl)-1H-pyrazole-3-carboxylic acid] | < 0.1 µM
O=C(O)c1ccn(C(=O)N2CCC3(CCCN3Cc3ccc(C(F)(F)F)cc3N3CCCC3)CC2)n1 [Example 93, 1-(1-(2-(pyrrolidin-1-yl)-4-(trifluoromethyl)-benzyl)-1,8-diazaspiro[4.5]-decane-8-carbonyl)-1H-pyrazole-3-carboxylic acid] | < 0.1 µM
C[C@@H]1CN(Cc2cccc(Oc3cc(C(F)(F)F)ccn3)c2)CCN1C(=O)n1ccc(C(=O)O)n1 [Example 374, (R)-1-(2-methyl-4-(3-((4-(trifluoromethyl)-pyridin-2-yl)oxy)benzyl)-piperazine-1-carbonyl)-1H-pyrazole-3-carboxylic acid] | < 0.1 µM
